From ChEMBL document CHEMBL4346757, “Synthesis and biological evaluation of 7-methoxy-1-(3,4,5-trimethoxyphenyl)-4,5-dihydro-2H-benzo[e]indazoles as new colchicine site inhibitors” (Bioorg Med Chem Lett, 2019)

What was measured:
Type in all cases: functional
[1] = system: SN12C; experiment: Growth inhibition of human SN12C cells assessed as cell growth at 10 uM after 48 hrs by SRB assay relative to control; conditions: read-out: Activity
[2] = system: NCI-H460; experiment: Cytotoxicity against human NCI-H460 cells assessed as growth inhibition after 48 hrs by SRB assay; conditions: NCI-H460, 48 h
[3] = system: SNB-19; experiment: Growth inhibition of human SNB19 cells assessed as cell growth at 0.1 uM after 48 hrs by SRB assay relative to control; conditions: SNB-19, 48 h, read-out: Activity
[4] = system: Malme-3M; experiment: Growth inhibition of human MALME-3M cells assessed as cell growth at 10 uM after 48 hrs by SRB assay relative to control; conditions: read-out: Activity
[5] = system: PC-3; experiment: Growth inhibition of human PC3 cells assessed as cell growth at 0.1 uM after 48 hrs by SRB assay relative to control; conditions: PC-3, 48 h, read-out: Activity
[6] = system: COLO 205; experiment: Growth inhibition of human COLO205 cells assessed as cell growth at 0.1 uM after 48 hrs by SRB assay relative to control; conditions: COLO 205, 48 h, read-out: Activity
[7] = system: SK-MEL-2; experiment: Growth inhibition of human SK-MEL-2 cells assessed as cell growth at 0.01 uM after 48 hrs by SRB assay relative to control; conditions: SK-MEL-2, 48 h, read-out: Activity
[8] = system: MDA-MB-435; experiment: Cytotoxicity against human MDA-MB-435 cells assessed as growth inhibition after 48 hrs by SRB assay; conditions: MDA-MB-435, 48 h
[9] = system: KM12; experiment: Cytotoxicity against human KM12 cells assessed as growth inhibition after 48 hrs by SRB assay; conditions: KM12, 48 h
[10] = system: HOP-92; experiment: Cytotoxicity against human HOP92 cells assessed as growth inhibition after 48 hrs by SRB assay; conditions: HOP-92, 48 h
[11] = system: OVCAR-4; experiment: Growth inhibition of human OVCAR4 cells assessed as cell growth at 100 uM after 48 hrs by SRB assay relative to control; conditions: OVCAR-4, 48 h, read-out: Activity
[12] = system: CAKI-1; experiment: Growth inhibition of human Caki1 cells assessed as cell growth at 1 uM after 48 hrs by SRB assay relative to control; conditions: CAKI-1, 48 h, read-out: Activity
[13] = system: MDA-MB-231; experiment: Growth inhibition of human MDA-MB-231/ATCC cells assessed as cell growth at 100 uM after 48 hrs by SRB assay relative to control; conditions: MDA-MB-231, 48 h, read-out: Activity
[14] = system: MDA-MB-231; experiment: Growth inhibition of human MDA-MB-231/ATCC cells assessed as cell growth at 1 uM after 48 hrs by SRB assay relative to control; conditions: MDA-MB-231, 48 h, read-out: Activity
[15] = system: HCT-116; experiment: Growth inhibition of human HCT116 cells assessed as cell growth at 0.1 uM after 48 hrs by SRB assay relative to control; conditions: HCT-116, 48 h, read-out: Activity
[16] = system: MDA-MB-468; experiment: Growth inhibition of human MDA-MB-468 cells assessed as cell growth at 0.01 uM after 48 hrs by SRB assay relative to control; conditions: MDA-MB-468, 48 h, read-out: Activity
[17] = system: SF-295; experiment: Growth inhibition of human SF295 cells assessed as cell growth at 10 uM after 48 hrs by SRB assay relative to control; conditions: SF-295, 48 h, read-out: Activity
[18] = system: 786-0; experiment: Growth inhibition of human 786-0 cells assessed as cell growth at 1 uM after 48 hrs by SRB assay relative to control; conditions: 786-0, 48 h, read-out: Activity
[19] = system: K562; experiment: Growth inhibition of human K562 cells assessed as cell growth at 100 uM after 48 hrs by SRB assay relative to control; conditions: K562, 48 h, read-out: Activity
[20] = system: CCRF-CEM; experiment: Growth inhibition of human CCRF-CEM cells assessed as cell growth at 0.01 uM after 48 hrs by SRB assay relative to control; conditions: read-out: Activity
[21] = system: ACHN; experiment: Growth inhibition of human ACHN cells assessed as cell growth at 100 uM after 48 hrs by SRB assay relative to control; conditions: read-out: Activity
[22] = system: OVCAR-5; experiment: Cytotoxicity against human OVCAR5 cells assessed as growth inhibition after 48 hrs by SRB assay; conditions: OVCAR-5, 48 h
[23] = system: SNB-75; experiment: Growth inhibition of human SNB75 cells assessed as cell growth at 100 uM after 48 hrs by SRB assay relative to control; conditions: SNB-75, 48 h, read-out: Activity
[24] = system: M14; experiment: Growth inhibition of human M14 cells assessed as cell growth at 0.01 uM after 48 hrs by SRB assay relative to control; conditions: M14, 48 h, read-out: Activity
[25] = system: CAKI-1; experiment: Growth inhibition of human Caki1 cells assessed as cell growth at 0.1 uM after 48 hrs by SRB assay relative to control; conditions: CAKI-1, 48 h, read-out: Activity
[26] = system: HT-29; experiment: Growth inhibition of human HT-29 cells assessed as cell growth at 1 uM after 48 hrs by SRB assay relative to control; conditions: HT-29, 48 h, read-out: Activity
[27] = system: KM12; experiment: Growth inhibition of human KM12 cells assessed as cell growth at 10 uM after 48 hrs by SRB assay relative to control; conditions: KM12, 48 h, read-out: Activity
[28] = system: A549; experiment: Growth inhibition of human A549/ATCC cells assessed as cell growth at 0.1 uM after 48 hrs by SRB assay relative to control; conditions: A549, 48 h, read-out: Activity
[29] = system: NCI-H460; experiment: Growth inhibition of human NCI-H460 cells assessed as cell growth at 10 uM after 48 hrs by SRB assay relative to control; conditions: NCI-H460, 48 h, read-out: Activity
[30] = system: OVCAR-5; experiment: Growth inhibition of human OVCAR5 cells assessed as cell growth at 0.01 uM after 48 hrs by SRB assay relative to control; conditions: OVCAR-5, 48 h, read-out: Activity
[31] = read-out: LC50 (the source's name)
[32] = read-out: pLC50 (the source's name) (converted)

In the case of `COc1ccc2c(c1)CCc1n[nH]c(-c3cc(OC)c(OC)c(OC)c3)c1-2`, the growth at 10 µM [1] is reported as 24%, the GI50 ([2]; read-out: GI50) is reported as under 0.01 µM and the CC50 [2, 31] is reported as 68.5 µM. For the same compound, the TGI ([2]; read-out: TGI) was 2.06 µM, the GI50 ([2]; read-out: pGI50 (converted)) was under 0.01 µM and the CC50 [2, 32] was 69.2 µM. For the same compound, the TGI ([2]; read-out: pTGI (converted)) was 2.04 µM, the growth at 0.1 µM [3] was 33% and the growth at 10 µM [4] was 41%. The growth at 0.1 µM [5] was 19%, the growth at 0.1 µM [6] was -46% and the growth at 0.01 µM [7] was 39%. It also gave a GI50 ([8]; read-out: GI50) of under 0.01 µM, a CC50 [8, 31] of 29.8 µM and a TGI ([8]; read-out: TGI) of under 0.01 µM. The GI50 ([8]; read-out: pGI50 (converted)) was under 0.01 µM, the CC50 [8, 32] was 29.5 µM and the TGI ([8]; read-out: pTGI) was under 0.01 µM. It also gave a GI50 ([9]; read-out: GI50) of under 0.01 µM, a CC50 [9, 31] of 46.5 µM and a TGI ([9]; read-out: TGI) of 11.8 µM. For the same compound, the GI50 ([9]; read-out: pGI50 (converted)) was under 0.01 µM, the CC50 [9, 32] was 46.8 µM and the TGI ([9]; read-out: pTGI (converted)) was 11.7 µM. It also gave a GI50 ([10]; read-out: GI50) of under 0.01 µM, a CC50 [10, 31] of 99.8 µM and a TGI ([10]; read-out: TGI) of 28.5 µM. The GI50 ([10]; read-out: pGI50 (converted)) was under 0.01 µM, the CC50 [10, 32] was 100 µM and the TGI ([10]; read-out: pTGI (converted)) was 28.2 µM. It also gave a growth at 100 µM [11] of -12%, a growth at 1 µM [12] of 22% and a growth at 100 µM [13] of -18%. The growth at 1 µM [14] was 29%, the growth at 0.1 µM [15] was 3% and the growth at 0.01 µM [16] was -7%. The growth at 10 µM [17] was -5%, the growth at 1 µM [18] was 14% and the growth at 100 µM [19] was 7%. It also gave a growth at 0.01 µM [20] of 38%, a growth at 100 µM [21] of -29% and a GI50 ([22]; read-out: GI50) of 0.242 µM. The LC50 ([22]; read-out: LC50) was over 100 µM, the TGI ([22]; read-out: TGI) was 38.8 µM and the GI50 ([22]; read-out: pGI50 (converted)) was 0.24 µM. It also gave an LC50 ([22]; read-out: pLC50 (converted)) of over 100 µM, a TGI ([22]; read-out: pTGI (converted)) of 38.9 µM and a growth at 100 µM [23] of -30%. It also gave a growth at 0.01 µM [24] of 2%, a growth at 0.1 µM [25] of 23% and a growth at 1 µM [26] of 5%. It also gave a growth at 10 µM [27] of 6%, a growth at 0.1 µM [28] of 11% and a growth at 10 µM [29] of -5%. It also gave a growth at 0.01 µM [30] of 56%.
